{"source": "patent US10945968B2", "about": "“Memantine transdermal delivery systems” (Corium, Inc., priority 2016, dated 2021)", "origin": "cited, not measured here", "details": "DRUGBANK Accession No. DB01043", "data": [{"molecule": "C[C@]12CC3C[C@](C)(C1)C[C@@](N)(C3)C2", "note": "[Memantine, 3,5-dimethyladamantan-1-amine]", "values": [{"measurement": "Log P reported range", "value": "3.31-2.07"}]}]}
